# According to ChEMBL document CHEMBL1139623, “4,5-Disubstituted cis-pyrrolidinones as inhibitors of type II 17beta-hydroxysteroid dehydrogenase. Part 2. SAR” (Bioorg Med Chem Lett, 2005):
# Molecular target: T1, 17-beta-hydroxysteroid dehydrogenase type 2 (Homo sapiens, UniProt P37059)
# T1 sequence (P37059 whole entry): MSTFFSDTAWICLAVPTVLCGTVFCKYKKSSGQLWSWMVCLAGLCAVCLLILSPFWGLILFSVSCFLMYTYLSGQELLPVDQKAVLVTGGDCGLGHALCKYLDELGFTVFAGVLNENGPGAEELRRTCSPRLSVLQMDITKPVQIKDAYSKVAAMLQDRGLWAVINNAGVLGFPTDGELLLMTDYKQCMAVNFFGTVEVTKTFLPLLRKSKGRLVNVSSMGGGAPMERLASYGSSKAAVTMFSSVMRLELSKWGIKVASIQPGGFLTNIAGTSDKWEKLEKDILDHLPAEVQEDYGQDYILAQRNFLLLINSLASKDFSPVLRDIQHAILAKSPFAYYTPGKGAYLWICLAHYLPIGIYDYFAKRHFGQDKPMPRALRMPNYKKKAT
# Test: Inhibitory concentration against 17 beta hydroxysteroid dehydrogenase type 2 (type II 17-beta-HSD II)
row,SMILES,IC50 [µM]
1,CN1C(=O)C[C@H](c2ccccc2)[C@@H]1[C@H](O)c1cccc(Cl)c1,> 10
2,CN1C(=O)C[C@H](c2ccccc2)[C@@H]1[C@@H](O)c1cccc(C(F)(F)F)c1,0.88
3,CN1C(=O)C[C@H](c2ccccc2)[C@@H]1[C@@H](O)c1cccc(-c2ccccc2)c1,0.42
4,O=C1C[C@H](c2ccccc2)[C@H]([C@@H](O)c2cccs2)N1Cc1ccccc1,4.18
5,CN1C(=O)C[C@H](c2ccccc2)[C@@H]1[C@@H](O)C#Cc1ccccc1,0.43
6,CN1C(=O)C[C@H](c2ccccc2)[C@@H]1C(=O)c1cccs1,> 10
7,COc1cccc(C#C[C@H](O)[C@H]2[C@@H](c3ccccc3)CC(=O)N2C)c1,1.09
8,CN1C(=O)C[C@H](c2ccccc2)[C@@H]1[C@@H](O)C#Cc1ccccc1F,0.32
9,CN1C(=O)C[C@H](c2ccccc2)[C@@H]1[C@@H](O)C#Cc1ccc(F)cc1,0.48
10,CN1C(=O)C[C@H](c2ccccc2)[C@@H]1[C@@H](O)c1ccco1,3.18
11,CN1C(=O)C[C@H](c2ccccc2)[C@@H]1[C@@H](O)Cc1cccc(Cl)c1,2.39
12,CN1C(=O)C[C@H](c2ccccc2)[C@@H]1[C@@H](O)c1coc2ccccc12,1.16
13,CN1C(=O)C[C@H](c2ccccc2)[C@@H]1[C@@H](O)C(C)(C)C,> 10
14,CN(C)c1ccc([C@H](O)[C@H]2[C@@H](c3ccccc3)CC(=O)N2C)cc1,1.65
15,CN1C(=O)C[C@H](c2ccc(O)cc2)[C@@H]1[C@@H](O)c1ccc(-c2ccccc2)s1,0.22
16,Cc1ccc([C@H](O)[C@H]2[C@@H](c3ccccc3)CC(=O)N2C)s1,0.56
17,CN1C(=O)C[C@H](c2ccccc2)[C@@H]1[C@@H](O)c1ccc(Br)s1,1.2
18,CN1C(=O)C[C@H](c2ccccc2)[C@@H]1[C@@H](O)C#Cc1cccc(N)c1,0.37
19,Cc1ccc(C#C[C@H](O)[C@H]2[C@@H](c3ccccc3)CC(=O)N2C)cc1,0.8
20,COc1ccc([C@H](O)[C@H]2[C@@H](c3ccccc3)CC(=O)N2C)cc1,1.23
21,CN1C(=O)C[C@H](c2ccccc2)[C@@H]1[C@@H](O)C#Cc1ccccn1,1.5
22,CN(C)c1ccc([C@H]2CC(=O)N(C)[C@H]2[C@@H](O)c2ccc(-c3ccccc3)s2)cc1,2.43
23,CC(=O)O[C@@H](c1cccs1)[C@H]1[C@@H](c2ccccc2)CC(=O)N1C,1.37
24,CN1C(=O)C[C@H](c2ccccc2)[C@@H]1[C@@H](O)CCc1ccc(F)cc1,1.53
25,CN1C(=O)C[C@H](c2ccccc2)[C@@H]1C(F)c1cccs1 (some centres not stated),2.98
26,COc1ccc([C@H]2CC(=O)N(C)[C@H]2[C@@H](O)c2ccc(-c3ccccc3)s2)cc1,0.89

# Next, values leading:
row,IC50 [µM],SMILES
1,1.52,Cc1cccc([C@H](O)[C@H]2[C@@H](c3ccccc3)CC(=O)N2C)c1
2,> 10,CN1C(=O)C[C@H](c2ccc([N+](=O)[O-])cc2)[C@@H]1[C@@H](O)c1ccc(-c2ccccc2)s1
3,2.18,CN1C(=O)C[C@H](c2ccccc2)[C@@H]1Cc1cccc(Cl)c1
4,0.59,CN1C(=O)C[C@H](c2ccccc2)[C@@H]1[C@@H](O)c1cc2ccccc2s1
5,1.83,CN1C(=O)C[C@H](c2ccccc2)[C@@H]1[C@@H](O)CCc1ccccc1
6,1.13,CN1C(=O)C[C@H](c2ccccc2)[C@@H]1[C@@H](O)c1ccc(-c2ccc(O)cc2)cc1
7,3.24,CN1C(=O)C[C@H](c2ccccc2)[C@@H]1[C@@H](O)c1ccc(-c2ccccc2)o1
8,0.96,CN1C(=O)C[C@H](c2ccccc2)[C@@H]1[C@@H](O)c1ccc2c(c1)OCO2
9,0.4,CN1C(=O)C[C@H](c2ccccc2)[C@@H]1[C@@H](O)c1cccs1
10,0.81,COc1cccc([C@H](O)[C@H]2[C@@H](c3ccccc3)CC(=O)N2C)c1
11,0.44,CN1C(=O)C[C@H](c2ccccc2)[C@@H]1[C@@H](O)c1ccc(Cl)c(Cl)c1
12,1.82,Cc1ccc([C@H](O)[C@H]2[C@@H](c3ccccc3)CC(=O)N2C)cc1
13,1.76,CN1C(=O)C[C@H](c2ccccc2)[C@@H]1[C@@H](O)C#Cc1cccc(O)c1
14,1.96,CN1C(=O)C[C@H](c2ccccc2)[C@@H]1[C@@H](O)c1ccc(Cl)cc1
15,1.27,CN1C(=O)C[C@H](c2ccccc2)[C@@H]1[C@@H](O)c1ccc(Br)o1
16,0.9,CO[C@@H](c1cccc(Cl)c1)[C@H]1[C@@H](c2ccccc2)CC(=O)N1C
17,1.67,CNc1ccc([C@H]2CC(=O)N(C)[C@H]2[C@@H](O)c2ccc(-c3ccccc3)s2)cc1
18,1.26,CN1C(=O)C[C@H](c2ccccc2)[C@@H]1[C@@H](O)c1ccc(-c2ccc(F)cc2)cc1

row,IC50 [µM],SMILES
1,5,CN1C(=O)C[C@H](c2ccccc2)[C@@H]1[C@@H](O)c1ccccc1
2,0.19,CN1C(=O)C[C@H](c2ccc(N)cc2)[C@@H]1[C@@H](O)c1ccc(-c2ccccc2)s1
3,1.02,CN1C(=O)C[C@H](c2ccccc2)[C@@H]1[C@@H](O)c1ccc(-c2ccccc2)cc1
4,1.4,CN1C(=O)C[C@H](c2ccccc2)[C@@H]1[C@@H](O)/C=C/c1ccc(F)cc1
5,> 10,CN1C(=O)C[C@H](c2ccccc2)[C@@H]1[C@@H](O)c1cc2ccccc2[nH]1
6,2.78,CN1C(=O)C[C@H](c2ccccc2)[C@@H]1[C@@H](O)c1cccc(-c2ccc(F)cc2)c1
7,0.3,CN1C(=O)C[C@H](c2ccccc2)[C@@H]1[C@@H](O)C#Cc1ccccc1Cl
8,> 10,CC(=O)Nc1ccc([C@H]2CC(=O)N(C)[C@H]2[C@@H](O)c2ccc(-c3ccccc3)s2)cc1
9,0.1,CN1C(=O)C[C@H](c2ccccc2)[C@@H]1[C@@H](O)c1ccc(-c2ccccc2)s1
10,0.7,CN1C(=O)C[C@H](c2ccccc2)[C@@H]1[C@@H](O)c1cccc(Cl)c1
11,> 10,CN1C(=O)C[C@H](c2ccccc2)[C@@H]1[C@@H](OCCO)c1cccs1
12,2.66,CN1C(=O)C[C@H](c2ccccc2)[C@@H]1[C@@H](O)c1csc2ccccc12
13,3.91,CO[C@@H](c1cccs1)[C@H]1[C@@H](c2ccccc2)CC(=O)N1C
14,> 10,O=C1C[C@H](c2ccccc2)[C@H]([C@@H](O)c2cccs2)N1
15,> 10,CN1C(=O)C[C@H](c2ccccc2)[C@@H]1C(=O)c1cccc(Cl)c1
16,> 10,CN1C(=O)C[C@H](c2ccc(NS(C)(=O)=O)cc2)[C@@H]1[C@@H](O)c1ccc(-c2ccccc2)s1
17,> 10,CN1CC[C@H](c2ccccc2)[C@@H]1[C@@H](O)c1cccs1
18,> 10,CN1C(=S)C[C@H](c2ccccc2)[C@@H]1[C@@H](O)c1cccs1
